# Experimental data: patent US11149028B2, “Methods for treating melanoma using small molecules” (NOVA SOUTHEASTERN UNIVERSITY, priority 2016, dated 2021)
# Columns and labels:
# [1] = molecular target: T1, DDX1 (Homo sapiens, UniProt Q92499); assay: DARTS with western blot; type: binding; conditions: WM266-4 lysates
# T1 construct: WM-266-4 and M14 cells were sonicated in RIPA lysis buffer; endogenous in cells; host or cells: WM266-4 (and M14) melanoma cells and lysates
# Text: (§1) (FIG. 26A, DARTS workflow). Proteins that bind the lead present as bands of differential intensity on SDS-PAGE and are identified using proteomic techniques. […] Bands from non-treated control and sample treated with 2155-14 were excised, trypsinized, and run on LC/MS/MS. […] In addition to lamin A/C, lamin B2, transketolase (TKT), and cytoskeleton-associated protein 4 (CKAP4) were also identified as possible targets (Table 7 shown in FIG. 27). The exclusive unique peptide counts were too close to make the identification of one over the other with confidence.
# (§2) WM266-4 melanoma cell lysates were prepared using a routine protocol with commercially available M-PER buffer supplemented with protease and phosphatase inhibitors. Lysates were split into control and compound test portions, and DMSO and 2155-14 were added to the respective lysate portions and incubated at RT for 1 h to allow for 2155-14 binding to its target(s). Pronase dilutions (1:100. 1:300, 1:1000. 1:3000 and 1:10000, Roche #10165921001) were prepared from 10 mg/mL stock. Lysates were split into 5 aliquots, and pronase dilutions were added to lysate aliquots and incubated at RT for 30 min. […]
# (§3) Each sample was analyzed by liquid-chromatography-tandem MS (LC-MS/MS) using an EASY-nLC 1000 system coupled to a Q Exactive mass spectrometer (Thermo Fisher Scientific). […]
# [2] = system: lamin A/C; assay: DARTS (drug affinity responsive target stability); type: binding, human
# Text: as §1, §2, §3
# [3] = system: LC3-II and beclin-1 in M14 cells; assay: Western blotting for LC3 and beclin-1, M14; type: cell-based, human; conditions: 24 h, 100 μM
# Procedure: 1×10^6 of WM266-4 or M14 cells were seeded in 3 mL of E-MEM or RPMI-1640 medium supplemented with 10% FBS and 1% penicillin/streptomycin in 6 cm plates. […] After washing with TBST, the membranes were treated with chemilumiscent horseradish peroxidase detection reagent (Thermo Scientific, Cat #32209) and exposed to autoradiography film (Denville Scientific, Inc., Metuchen, N.J., USA, cat #E3018). ImageJ software (NIH, Bethesda, Md.) was used to quantify the intensity of proteins bands. The protein bands were normalized against loading controls (β-actin) and expressed as a fold of an untreated control.
# [4] = system: hnRNP H2; assay: DARTS with western blot; type: binding, human; conditions: WM266-4 lysates
# Text: as §1, §2, §3
# [5] = system: hnRNP A2/B1; assay: DARTS with western blot; type: binding, human; conditions: WM266-4 lysates
# Text: as §1, §2, §3
# T1 sequence (Q92499 whole entry): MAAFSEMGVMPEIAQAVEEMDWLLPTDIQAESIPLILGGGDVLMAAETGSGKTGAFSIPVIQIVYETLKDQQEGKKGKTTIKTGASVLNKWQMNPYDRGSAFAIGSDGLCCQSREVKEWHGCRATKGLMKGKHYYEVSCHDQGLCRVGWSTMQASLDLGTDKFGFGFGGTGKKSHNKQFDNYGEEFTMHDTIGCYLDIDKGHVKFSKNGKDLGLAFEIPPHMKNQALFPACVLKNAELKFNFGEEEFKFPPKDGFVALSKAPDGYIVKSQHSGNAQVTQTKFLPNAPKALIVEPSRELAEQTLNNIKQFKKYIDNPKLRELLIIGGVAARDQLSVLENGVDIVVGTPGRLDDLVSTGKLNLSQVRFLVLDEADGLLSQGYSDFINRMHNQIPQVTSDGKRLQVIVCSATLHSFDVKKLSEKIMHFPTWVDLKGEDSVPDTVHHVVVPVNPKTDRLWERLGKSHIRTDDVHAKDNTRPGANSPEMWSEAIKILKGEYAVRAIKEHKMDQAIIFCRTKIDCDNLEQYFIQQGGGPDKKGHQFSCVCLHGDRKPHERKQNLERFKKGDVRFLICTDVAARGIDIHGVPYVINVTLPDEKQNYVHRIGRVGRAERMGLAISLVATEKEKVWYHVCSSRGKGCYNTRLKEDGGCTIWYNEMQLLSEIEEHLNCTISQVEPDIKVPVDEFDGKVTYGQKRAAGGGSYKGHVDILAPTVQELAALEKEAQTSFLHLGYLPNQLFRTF
smiles,measurement,setting,value
"O=C1NC[C@H](Cc2ccccc2)N(C[C@@H]2CCCN2C[C@@H](CC2CCCCC2)N2C[C@H](Cc3ccc(O)cc3)N(CCc3ccccc3)C(=O)C2=O)C1=O [Compound 2155-14, (S)-1((R)-1((S)-2-(((S)-6-benzyl-2,3-dioxopiperazin-1-yl)methyl)pyrrolidin-1-yl)-3-cyclohexylpropan-2-yl)-5-(4-hydroxybenzyl)-4-phenethylpiperazine-2,3-dione]",protection of DDX1 from pronase,[1],protects these proteins from pronase proteolysis
same,DARTS-LC-MS/MS identification of protected band,"[2]; 100 μM, 1:1,000 pronase",Lamin A/C was the protein with the highest score
same,protection of lamin A/C from pronase,"[2]; WM266-4 lysates, western blot",protects these proteins from pronase proteolysis
same,"LC3-II level, M14",[3],dose dependent increase
same,"beclin-1 level, M14",[3],dose dependent increase
same,protection of hnRNPH2 from pronase,[4],protects these proteins from pronase proteolysis
same,protection of hnRNPA2/B1 from pronase,[5],protects these proteins from pronase proteolysis
